Consider 16 compounds from patent US12590091B2, “1H-pyrrolo[3,2-C]pyridine and 1H-pyrrolo[2,3-C]pyridine derivatives as TLR9 inhibitors for the treatment of fibrosis” (BRISTOL-MYERS SQUIBB COMPANY, priority 2020, dated 2026).

A value given as a limit tells only on which side of the number the result lay.

The target in one test is T1, human TLR7 (Homo sapiens, UniProt Q9NYK1).
T1 construct: host or cells: HEK-Blue cells
T1 sequence (Q9NYK1 27-1049): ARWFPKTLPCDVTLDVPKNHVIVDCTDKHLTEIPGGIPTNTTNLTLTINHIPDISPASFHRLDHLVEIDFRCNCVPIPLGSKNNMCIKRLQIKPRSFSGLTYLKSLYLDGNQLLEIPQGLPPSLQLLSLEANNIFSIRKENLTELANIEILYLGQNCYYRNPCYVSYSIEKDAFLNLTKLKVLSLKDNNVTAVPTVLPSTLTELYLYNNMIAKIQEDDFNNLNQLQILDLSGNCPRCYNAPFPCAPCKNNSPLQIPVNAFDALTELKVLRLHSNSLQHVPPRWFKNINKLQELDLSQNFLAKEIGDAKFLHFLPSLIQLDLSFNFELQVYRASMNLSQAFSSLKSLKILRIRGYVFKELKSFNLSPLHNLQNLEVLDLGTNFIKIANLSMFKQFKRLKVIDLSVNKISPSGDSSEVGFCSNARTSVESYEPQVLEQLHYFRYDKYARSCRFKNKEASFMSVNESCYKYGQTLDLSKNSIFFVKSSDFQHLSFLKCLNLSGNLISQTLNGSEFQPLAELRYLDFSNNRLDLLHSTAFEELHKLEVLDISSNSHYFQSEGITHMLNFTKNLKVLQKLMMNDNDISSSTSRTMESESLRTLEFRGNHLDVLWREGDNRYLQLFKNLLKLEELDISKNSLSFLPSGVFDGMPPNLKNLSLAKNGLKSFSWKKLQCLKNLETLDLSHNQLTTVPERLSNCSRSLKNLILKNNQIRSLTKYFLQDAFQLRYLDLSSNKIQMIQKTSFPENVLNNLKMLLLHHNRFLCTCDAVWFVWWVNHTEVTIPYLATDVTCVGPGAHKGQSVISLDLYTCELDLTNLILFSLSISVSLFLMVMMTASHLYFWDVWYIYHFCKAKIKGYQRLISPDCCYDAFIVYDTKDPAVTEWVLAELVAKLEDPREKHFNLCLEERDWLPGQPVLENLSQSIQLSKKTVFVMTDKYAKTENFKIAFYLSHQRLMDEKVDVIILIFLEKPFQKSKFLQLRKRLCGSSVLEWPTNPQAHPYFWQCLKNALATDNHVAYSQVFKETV
Kind of test: TLR7 inhibition reporter assay (HEK-Blue cells, SEAP reporter). The test is classed as cell-based. To be noted: HEK-Blue cells overexpressing human TLR7, stimulated with gardiquimod 7.5 μM, 22 hour incubation. Put shortly:
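HEK-Blue cells overexpressing human TLR7, TLR8 or TLR9 carry a SEAP reporter driven by NF-κB/AP-1 sites. Compounds (0.05 nM–50 μM) were preincubated 30 min at room temperature, then cells were stimulated with gardiquimod 7.5 μM (TLR7), R848 15.9 μM (TLR8) or ODN2006 5 nM (TLR9) for 22 h at 37 °C.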
On the technique in general: In a reporter assay the amount or activity of a reporter protein is the signal.

Another test addresses T2, human TLR9 (Homo sapiens, UniProt Q9NR96).
T2 construct: host or cells: HEK-Blue cells
T2 sequence (Q9NR96 26-1032): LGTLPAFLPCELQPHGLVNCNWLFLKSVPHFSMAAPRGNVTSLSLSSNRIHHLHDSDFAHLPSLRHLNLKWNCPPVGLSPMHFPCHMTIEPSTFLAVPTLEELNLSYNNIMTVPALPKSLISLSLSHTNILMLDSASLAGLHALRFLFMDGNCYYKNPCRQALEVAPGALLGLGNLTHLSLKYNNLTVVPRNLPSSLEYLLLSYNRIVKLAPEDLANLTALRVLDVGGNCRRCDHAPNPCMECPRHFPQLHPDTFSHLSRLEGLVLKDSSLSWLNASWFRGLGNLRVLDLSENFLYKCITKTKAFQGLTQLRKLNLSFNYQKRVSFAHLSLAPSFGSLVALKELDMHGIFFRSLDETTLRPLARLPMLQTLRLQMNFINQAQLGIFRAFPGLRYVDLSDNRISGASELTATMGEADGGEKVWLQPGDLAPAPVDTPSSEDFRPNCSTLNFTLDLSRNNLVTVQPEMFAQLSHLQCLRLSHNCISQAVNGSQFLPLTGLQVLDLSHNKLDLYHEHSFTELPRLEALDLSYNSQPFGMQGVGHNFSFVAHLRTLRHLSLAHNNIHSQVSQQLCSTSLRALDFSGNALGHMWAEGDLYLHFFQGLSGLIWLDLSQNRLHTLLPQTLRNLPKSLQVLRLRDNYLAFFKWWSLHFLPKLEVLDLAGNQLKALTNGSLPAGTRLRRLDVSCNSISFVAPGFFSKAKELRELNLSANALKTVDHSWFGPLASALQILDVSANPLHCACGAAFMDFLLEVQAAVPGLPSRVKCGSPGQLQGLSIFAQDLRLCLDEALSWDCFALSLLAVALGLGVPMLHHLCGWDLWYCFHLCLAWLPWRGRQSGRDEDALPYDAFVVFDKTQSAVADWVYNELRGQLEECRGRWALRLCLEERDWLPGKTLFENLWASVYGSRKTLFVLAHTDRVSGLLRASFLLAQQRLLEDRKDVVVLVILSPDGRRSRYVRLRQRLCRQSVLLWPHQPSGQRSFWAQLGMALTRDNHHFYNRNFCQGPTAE
Kind of test: TLR9 inhibition reporter assay (HEK-Blue cells, SEAP reporter). The test is classed as cell-based. Particulars: HEK-Blue cells overexpressing human TLR9, stimulated with ODN2006 5 nM, 22 hour incubation. Put shortly: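 Compound dose-response (0.05 nM–50 μM final) on agonist-stimulated human TLR9 HEK-Blue cells, 25,000/well, incubated 22 h at 37 °C, 5% CO2. Readout was secreted alkaline phosphatase under an IFN-β minimal promoter with NF-κB/AP-1 sites; inhibition expressed relative to DMSO and reference-inhibitor controls.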

What is called IC50 is the concentration that inhibits the measured activity by half. Low values mean higher potency, high ones lower potency. In the case of `Cc1nc(-c2ccc(CN3CCN(CCCO)CC3)cc2)cc2c1cc(-c1ccc(S(C)(=O)=O)cc1)n2C` [Example 58, 3-(4-(4-(1,4-dimethyl-2-(4-(methylsulfonyl)phenyl)-1H-pyrrolo[3,2-c]pyridin-6-yl)benzyl)piperazin-1-yl)propan-1-ol], the half-inhibitory concentration (IC50) was 8200 nM against human TLR7 and 107 nM against human TLR9.

In the case of `Cc1nc(-c2ccc(CN3CCC(C)(O)CC3)cc2)cc2c1cc(-c1ccc(S(C)(=O)=O)cc1)n2C` [Example 59, 1-(4-(1,4-dimethyl-2-(4-(methylsulfonyl)phenyl)-1H-pyrrolo[3,2-c]pyridin-6-yl)benzyl)-4-methylpiperidin-4-ol], the IC50 against human TLR7 worked out at 12900 nM; against human TLR9, 772 nM.

Regarding `Cc1nc(-c2ccc(CN3CCN(CCC(C)(C)O)CC3)cc2)cc2c1cc(-c1ccc(S(C)(=O)=O)cc1)n2C` [Example 60, 4-(4-(4-(1,4-dimethyl-2-(4-(methylsulfonyl)phenyl)-1H-pyrrolo[3,2-c]pyridin-6-yl)benzyl)piperazin-1-yl)-2-methylbutan-2-ol], the IC50 on human TLR7 is 5400 nM; at human TLR9, 64 nM.

Take `Cc1nc(-c2ccc(CN3C[C@@H]4CC[C@H]3CN4CCC(C)(C)O)cc2)cc2c1cc(-c1ccc(S(C)(=O)=O)cc1)n2C` [Example 61, 4-((1S,4S)-5-(4-(1,4-dimethyl-2-(4-(methylsulfonyl)phenyl)-1H-pyrrolo[3,2-c]pyridin-6-yl)benzyl)-2,5-diazabicyclo[2.2.2]octan-2-yl)-2-methylbutan-2-ol]: the IC50 against human TLR7 was 3100 nM; on human TLR9, 109 nM.

As to `Cc1nc(-c2ccc(N3CCN(CCO)CC3)c(F)c2)cc2c1cc(-c1ccc(S(C)(=O)=O)cc1)n2C` [Example 69, 2-(4-(4-(1,4-dimethyl-2-(4-(methylsulfonyl)phenyl)-1H-pyrrolo[3,2-c]pyridin-6-yl)-2-fluorophenyl)piperazin-1-yl)ethan-1-ol], the figures for the IC50 against human TLR7 and on human TLR9 were 23700 nM and 78 nM, respectively.

For the compound `Cc1nc(-c2ccc(N3CCN(C4CCOC4)CC3)c(F)c2)cc2c1cc(-c1ccc(S(C)(=O)=O)cc1)n2C` (centres unmarked) [Example 70, 6-(3-fluoro-4-(4-(tetrahydrofuran-3-yl)piperazin-1-yl)phenyl)-1,4-dimethyl-2-(4-(methylsulfonyl)phenyl)-1H-pyrrolo[3,2-c]pyridine], the figures for the concentration for half-maximal inhibition (IC50) at human TLR7 and at human TLR9 were over 25000 nM and 260 nM, respectively.

As to `COCCN1C2CCC1CN(c1ccc(-c3cc4c(cc(-c5ccc(S(C)(=O)=O)cc5)n4C)c(C)n3)cc1)C2` [Example 74, 6-(4-(8-(2-methoxyethyl)-3,8-diazabicyclo[3.2.1]octan-3-yl)phenyl)-1,4-dimethyl-2-(4-(methylsulfonyl)phenyl)-1H-pyrrolo[3,2-c]pyridine], the half-maximal inhibitory concentration (IC50) at human TLR7 stood at 1600 nM; on human TLR9, 58 nM.

Consider `COCCN1C2CCC1CN(c1ccc(-c3cc4c(cc(-c5ccc(S(C)(=O)=O)cc5)n4C)c(C)n3)cc1F)C2` [Example 75, 6-(3-fluoro-4-(8-(2-methoxyethyl)-3,8-diazabicyclo[3.2.1]octan-3-yl)phenyl)-1,4-dimethyl-2-(4-(methylsulfonyl)phenyl)-1H-pyrrolo[3,2-c]pyridine], for which the half-maximal inhibitory concentration (IC50) stood at 2200 nM on human TLR7 and 75 nM against human TLR9.

For the compound `Cc1nc(-c2ccc(N3CC4CCC(C3)N4CCCO)cc2)cc2c1cc(-c1ccc(S(C)(=O)=O)cc1)n2C` [Example 76, 3-(3-(4-(1,4-dimethyl-2-(4-(methylsulfonyl)phenyl)-1H-pyrrolo[3,2-c]pyridin-6-yl)phenyl)-3,8-diazabicyclo[3.2.1]octan-8-yl)propan-1-ol], the results for the IC50 against human TLR7 and on human TLR9 were 600 nM and 53 nM, respectively.

Turning to `Cc1nc(-c2ccc(N3CC4CCC(C3)N4CCCO)c(F)c2)cc2c1cc(-c1ccc(S(C)(=O)=O)cc1)n2C` [Example 77, 3-(3-(4-(1,4-dimethyl-2-(4-(methylsulfonyl)phenyl)-1H-pyrrolo[3,2-c]pyridin-6-yl)-2-fluorophenyl)-3,8-diazabicyclo[3.2.1]octan-8-yl)propan-1-ol], the values for the concentration for half-maximal inhibition (IC50) against human TLR7 and at human TLR9 were 1900 nM and 126 nM, respectively.

`COCCN1C2CCC1CN(c1cc(F)c(-c3cc4c(cc(-c5ccc(S(C)(=O)=O)cc5)n4C)c(C)n3)cc1F)C2` [Example 78, 6-(2,5-difluoro-4-(8-(2-methoxyethyl)-3,8-diazabicyclo[3.2.1]octan-3-yl)phenyl)-1,4-dimethyl-2-(4-(methylsulfonyl)phenyl)-1H-pyrrolo[3,2-c]pyridine]: the half-maximal inhibitory concentration (IC50) against human TLR7 was found to be 2700 nM; at human TLR9, 147 nM.

As to `Cc1nc(-c2cc(F)c(N3CC4CCC(C3)N4CCCO)cc2F)cc2c1cc(-c1ccc(S(C)(=O)=O)cc1)n2C` [Example 79, 3-(3-(4-(1,4-dimethyl-2-(4-(methylsulfonyl)phenyl)-1H-pyrrolo[3,2-c]pyridin-6-yl)-2,5-difluorophenyl)-3,8-diazabicyclo[3.2.1]octan-8-yl) propan-1-ol], the half-inhibitory concentration (IC50) against human TLR7 stood at 2700 nM; at human TLR9 it was 35 nM.

Take `Cc1nc(-c2ccc(N3CCN(CC(C)C)CC3)c(F)c2F)cc2c1cc(-c1ccc(S(C)(=O)=O)cc1)n2C` [Example 82, 6-(2,3-difluoro-4-(4-isobutylpiperazin-1-yl)phenyl)-1,4-dimethyl-2-(4-(methylsulfonyl)phenyl)-1H-pyrrolo[3,2-c]pyridine]: the IC50 is 6400 nM against human TLR7 and 329 nM at human TLR9.

Turning to `Cc1nc(-c2ccc(C3(O)CCN(C4CC4)CC3)cc2)cc2c1cc(-c1ccc(S(C)(=O)=O)cc1)n2C` [Example 87, 1-cyclopropyl-4-(4-(1,4-dimethyl-2-(4-(methylsulfonyl)phenyl)-1H-pyrrolo[3,2-c]pyridin-6-yl)phenyl)piperidin-4-ol], the 50% inhibitory concentration (IC50) was found to be 2200 nM against human TLR7 and 73 nM on human TLR9.

Take `Cc1nc(-c2ccc(C3(O)CCN(C(C)C)CC3)cc2)cc2c1cc(-c1ccc(S(C)(=O)=O)cc1)n2C` [Example 88, 4-(4-(1,4-dimethyl-2-(4-(methylsulfonyl)phenyl)-1H-pyrrolo[3,2-c]pyridin-6-yl)phenyl)-1-isopropylpiperidin-4-ol]: the IC50 on human TLR7 was 6500 nM; at human TLR9 it was 114 nM.

As for `Cc1nc(-c2ccc(N3CCN4CCCC4C3)c(F)c2F)cc2c1cc(-c1ccc(S(C)(=O)=O)cc1)n2C` (centres unmarked) [Example 99, 6-(2,3-difluoro-4-(hexahydropyrrolo[1,2-a]pyrazin-2(1H)-yl)phenyl)-1,4-dimethyl-2-(4-(methylsulfonyl)phenyl)-1H-pyrrolo[3,2-c]pyridine], the IC50 is 1500 nM against human TLR7 and 250 nM at human TLR9.
